Reference: paper PMC7661129, “Evaluation of Binding of Rosmarinic Acid with Human Transferrin and Its Impact on the Protein Structure: Targeting Polyphenolic Acid-Induced Protection of Neurodegenerative Disorders” (Oxidative Medicine and Cellular Longevity, 2020)

How the values were obtained:
Human transferrin (hTf) [1] = target: T1, Human transferrin (hTf) (Homo sapiens, UniProt P02787); assay: isothermal titration calorimetry (VP-ITC); assay type: binding; conditions: 25 °C; 20 mM sodium phosphate pH 7.4; four-site fit, first site; large fit error, Ka4 printed negative; unreliable
T1 construct: gene TF
T1 sequence (P02787 20-698): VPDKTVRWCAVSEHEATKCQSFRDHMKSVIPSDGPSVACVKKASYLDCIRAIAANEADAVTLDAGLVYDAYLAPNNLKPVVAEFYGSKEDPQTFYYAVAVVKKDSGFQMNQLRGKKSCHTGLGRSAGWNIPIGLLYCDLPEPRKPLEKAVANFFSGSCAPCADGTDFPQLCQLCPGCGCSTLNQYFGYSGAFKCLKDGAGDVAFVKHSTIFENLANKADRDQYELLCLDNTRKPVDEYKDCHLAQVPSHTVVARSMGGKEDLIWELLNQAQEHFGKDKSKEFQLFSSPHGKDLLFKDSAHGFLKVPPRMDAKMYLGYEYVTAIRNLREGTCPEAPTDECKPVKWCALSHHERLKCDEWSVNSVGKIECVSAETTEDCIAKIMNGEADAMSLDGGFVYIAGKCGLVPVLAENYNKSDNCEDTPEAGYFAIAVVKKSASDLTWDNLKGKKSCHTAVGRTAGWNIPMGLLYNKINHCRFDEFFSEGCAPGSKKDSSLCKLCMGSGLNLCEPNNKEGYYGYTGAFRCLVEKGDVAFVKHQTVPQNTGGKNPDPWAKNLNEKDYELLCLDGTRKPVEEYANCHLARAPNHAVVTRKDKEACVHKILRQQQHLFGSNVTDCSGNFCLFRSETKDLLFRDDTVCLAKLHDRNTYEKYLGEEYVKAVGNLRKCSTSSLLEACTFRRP

Human transferrin (hTf) [2] = target: T1, Human transferrin (hTf); assay: intrinsic fluorescence quenching, modified Stern-Volmer; assay type: binding; conditions: 301 K; 20 mM sodium phosphate pH 7.4; n = 1.25; double-log
Excerpt: intrinsic fluorescence quenching, modified Stern-Volmer on Human transferrin (hTf)

Ka1 (Human transferrin (hTf) [1]): 115000 ± 81000 M⁻¹
K (10^7 M^-1) (Human transferrin (hTf) [2]): 0.107 × 10^7 M^-1
Structure (SMILES): O=C(/C=C/c1ccc(O)c(O)c1)O[C@H](Cc1ccc(O)c(O)c1)C(=O)O [Rosmarinic acid]
